Our source for the Ki values is patent US7585874B2, “Aryl-isoxazol-4-yl-imidazo[1,2-a]pyridine derivatives” (Hoffmann-La Roche Inc., priority 2006, dated 2009).

The Ki is the equilibrium dissociation constant of an inhibitor or competing ligand from its target.

The experiment addresses T1, GABA A receptor α5β3γ2 (Homo sapiens, UniProt P18507+P31644).
T1 construct: expressed in transfected cells; host or cells: HEK293 (transiently transfected; membranes)
Briefly: [3H]flumazenil competition binding, membranes of HEK293 cells expressing human GABA A α5β3γ2. The following applies: human α5β3γ2 in HEK293 (transiently transfected); 0.5 nM [3H]flumazenil; 1 hour at 4° C.; means of two determinations; read-out: Ki[nM]hα5. The procedure: The affinity of compounds at GABA A receptor subtypes was measured by competition for [3H]flumazenil (85 Ci/mmol; Roche) binding to HEK293 cells expressing rat (stably transfected) or human (transiently transfected) receptors of composition α1β3γ2, α2β3γ2, α3β3γ2 and α5β3γ2.
Cell pellets were suspended in Krebs-tris buffer (4.8 mM KCl, 1.2 mM CaCl2, 1.2 mM MgCl2, 120 mM NaCl, 15 mM Tris; pH 7.5; binding assay buffer), homogenized by polytron for ca. 20 sec on ice and centrifuged for 60 min at 4° C. (50000 g; Sorvall, rotor: SM24=20000 rpm). The cell pellets were resuspended in Krebs-tris buffer and homogenized by polytron for ca. 15 sec on ice. Protein was measured (Bradford method, Bio-Rad) and aliquots of 1 mL were prepared and stored at −80° C.
Radioligand binding assays were carried out in a volume of […] (96-well plates) which contained […] of cell membranes, [3H]flumazenil at a concentration of 1 nM for α1, α2, α3 subunits and 0.5 nM for α5 subunits and the test compound in the range of […]. Nonspecific binding was defined by 10^−5 M diazepam and typically represented less than 5% of the total binding. Assays were incubated to equilibrium for 1 hour at 4° C. and harvested onto GF/C uni-filters (Packard) by filtration using a Packard harvester and washing with ice-cold wash buffer 50 mM Tris; pH 7.5). After drying, filter-retained radioactivity was detected by liquid scintillation counting. Ki values were calculated using Excel-Fit (Microsoft) and are the means of two determinations.

With `Cc1onc(-c2ccccc2)c1-c1cn2ccc(N)cc2n1` [Example 46, 2-(5-Methyl-3-phenyl-isoxazol-4-yl)-imidazo[1,2-a]pyridin-7-ylamine], the Ki was determined as 90.3 nM.
The result for `Cc1onc(-c2ccccc2)c1-c1cn2cc(N3CCCC3=O)ccc2n1` [Example 63, 1-[2-(5-Methyl-3-phenyl-isoxazol-4-yl)-imidazo[1,2-a]pyridin-6-yl]-pyrrolidin-2-one] reads 48.7 nM; that for `Cc1onc(-c2ccccc2)c1-c1cn2ccc(C(=O)NCCCN3CCOCC3)cc2n1` [Example 19, 2-(5-Methyl-3-phenyl-isoxazol-4-yl)-imidazo[1,2-a]pyridine-7-carboxylic acid (3-morpholin-4-yl-propyl)-amide], 124 nM; that for `Cc1onc(-c2ccccc2)c1-c1cn2cc(NC(=O)C3CC3)ccc2n1` [Example 57, Cyclopropanecarboxylic acid [2-(5-methyl-3-phenyl-isoxazol-4-yl)-imidazo[1,2-a]pyridin-6-yl]-amide], 20.8 nM.
Regarding `COC(=O)c1ccc2nc(-c3c(-c4ccccc4)noc3C)cn2c1` [Example 29, 2-(5-Methyl-3-phenyl-isoxazol-4-yl)-imidazo[1,2-a]pyridine-6-carboxylic acid methyl ester], the Ki was determined as 117 nM.
For `Cc1onc(-c2ccccc2)c1-c1cn2cc(C#N)ccc2n1` [Example 28, 2-(5-Methyl-3-phenyl-isoxazol-4-yl)-imidazo[1,2-a]pyridine-6-carbonitrile], the Ki came out at 173 nM.
Consider `Cc1onc(-c2ccccc2)c1-c1cn2ccccc2n1` [Example 1, 2-(5-Methyl-3-phenyl-isoxazol-4-yl)-imidazo[1,2-a]pyridine], for which the inhibition constant Ki worked out at 167 nM.
Consider `Cc1onc(-c2ccccc2)c1C(=O)COc1cccn2cc(-c3c(-c4ccccc4)noc3C)nc12` [Example 7, 1-(5-Methyl-3-phenyl-isoxazol-4-yl)-2-[2-(5-methyl-3-phenyl-isoxazol-4-yl)-imidazo[1,2-a]pyridin-8-yloxy]-ethanone], for which the Ki amounted to 126 nM.
Regarding `Cc1onc(-c2ccccc2)c1-c1cn2cc(NC(=O)CC3CC3)ccc2n1` [Example 55, 2-Cyclopropyl-N-[2-(5-methyl-3-phenyl-isoxazol-4-yl)-imidazo[1,2-a]pyridin-6-yl]-acetamide], the Ki is 38.4 nM.
As for `Cc1onc(-c2ccccc2)c1-c1cn2ccc(NC(=O)C3CCC3)cc2n1` [Example 49, Cyclobutanecarboxylic acid [2-(5-methyl-3-phenyl-isoxazol-4-yl)-imidazo[1,2-a]pyridin-7-yl]-amide], the inhibition constant Ki is 80.5 nM.
`Cc1onc(-c2ccccc2)c1-c1cn2c(-n3ccnc3)cccc2n1` [Example 67, 5-Imidazol-1-yl-2-(5-methyl-3-phenyl-isoxazol-4-yl)-imidazo[1,2-a]pyridine]: the Ki worked out at 13.4 nM.
As for `Cc1onc(-c2ccccc2)c1-c1cn2cccc(Br)c2n1` [Example 4, 8-Bromo-2-(5-methyl-3-phenyl-isoxazol-4-yl)-imidazo[1,2-a]pyridine], the figure is 146 nM; as for `Cc1onc(-c2ccccc2)c1-c1cn2ccc(C(=O)NC3CCOCC3)cc2n1` [Example 17, 2-(5-Methyl-3-phenyl-isoxazol-4-yl)-imidazo[1,2-a]pyridine-7-carboxylic acid (tetrahydro-pyran-4-yl)-amide], 96 nM; as for “2-(5-Methyl-3-phenyl-isoxazol-4-yl)-imidazo[1,2-a]pyridine-6-carboxylic acid (3-morpholin-4-yl-propyl)-amide [Example 39]”, 190 nM.
The result for `Cc1onc(-c2ccccc2)c1-c1cn2ccc(C(=O)NCC3CC3)cc2n1` [Example 11, 2-(5-Methyl-3-phenyl-isoxazol-4-yl)-imidazo[1,2-a]pyridine-7-carboxylic acid cyclopropylmethyl-amide] reads 178 nM.
